Assay: xn = mol fraction of the nth substance listed
Conditions: 100 kPa, Liquid; for viscosity: Concentric cylinders viscometry; for mass density: Vibrating tube method

CN1CCC[C@H]1c1cccnc1 [(-)-3-(N-methylpyrrolidino)pyridine] + CC(O)CO
Conditions	mass density [kg/m3]	viscosity [mPa·s]
293.15 K, x1 = 0.1	1035.04	59.35
293.15 K, x1 = 0.2009	1033.1	53.52
293.15 K, x1 = 0.3	1030.49	44.85
293.15 K, x1 = 0.4016	1027.64	35.02
293.15 K, x1 = 0.5	1024.73	26.04
293.15 K, x1 = 0.6005	1021.54	18.44
293.15 K, x1 = 0.7	1018.73	12.89
293.15 K, x1 = 0.7983	1015.98	9.269
293.15 K, x1 = 0.9	1012.96	6.875
293.15 K, x1 = 1	1010.23	4.694
298.15 K, x1 = 0.1	1031.1	43.28
298.15 K, x1 = 0.2009	1029.06	38.88
298.15 K, x1 = 0.3	1026.32	32.72
298.15 K, x1 = 0.4016	1023.44	25.84
298.15 K, x1 = 0.5	1020.54	19.6
298.15 K, x1 = 0.6005	1017.36	14.25
298.15 K, x1 = 0.7	1014.59	10.27
298.15 K, x1 = 0.7983	1011.83	7.576
298.15 K, x1 = 0.9	1008.87	5.707
298.15 K, x1 = 1	1006.16	4.048
303.15 K, x1 = 0.1	1027.18	32.21
303.15 K, x1 = 0.2009	1025	28.85
303.15 K, x1 = 0.3	1022.19	24.37
303.15 K, x1 = 0.4016	1019.27	19.44
303.15 K, x1 = 0.5	1016.35	14.99
303.15 K, x1 = 0.6005	1013.17	11.16
303.15 K, x1 = 0.7	1010.42	8.284
303.15 K, x1 = 0.7983	1007.68	6.286
303.15 K, x1 = 0.9	1004.77	4.834
303.15 K, x1 = 1	1002.1	3.518
308.15 K, x1 = 0.1	1023.28	24.46
308.15 K, x1 = 0.2009	1020.91	21.87
308.15 K, x1 = 0.3	1018.08	18.56
308.15 K, x1 = 0.4016	1015.09	14.98
308.15 K, x1 = 0.5	1012.14	11.73
308.15 K, x1 = 0.6005	1008.98	8.935
308.15 K, x1 = 0.7	1006.13	6.791
308.15 K, x1 = 0.7983	1003.54	5.264
308.15 K, x1 = 0.9	1000.64	4.12
308.15 K, x1 = 1	998.055	3.088
313.15 K, x1 = 0.1	1019.3	18.79
313.15 K, x1 = 0.2009	1016.8	16.79
313.15 K, x1 = 0.3	1013.89	14.33
313.15 K, x1 = 0.4016	1010.88	11.69
313.15 K, x1 = 0.5	1007.92	9.302
313.15 K, x1 = 0.6005	1004.79	7.224
313.15 K, x1 = 0.7	1002.03	5.605
313.15 K, x1 = 0.7983	999.39	4.425
313.15 K, x1 = 0.9	996.55	3.532
313.15 K, x1 = 1	994.014	2.758
318.15 K, x1 = 0.1	1015.29	14.91
318.15 K, x1 = 0.2009	1012.66	13.34
318.15 K, x1 = 0.3	1009.7	11.45
318.15 K, x1 = 0.4016	1006.65	9.438
318.15 K, x1 = 0.5	1003.69	7.62
318.15 K, x1 = 0.6005	1000.58	6.031
318.15 K, x1 = 0.7	997.85	4.779
318.15 K, x1 = 0.7983	995.25	3.839
318.15 K, x1 = 0.9	992.46	3.094
318.15 K, x1 = 1	989.984	2.411
323.15 K, x1 = 0.1	1011.25	12.03
323.15 K, x1 = 0.2009	1008.51	10.78
323.15 K, x1 = 0.3	1005.48	9.306
323.15 K, x1 = 0.4016	1002.41	7.746
323.15 K, x1 = 0.5	999.45	6.339
323.15 K, x1 = 0.6005	996.37	5.104
323.15 K, x1 = 0.7	993.67	4.124
323.15 K, x1 = 0.7983	991.1	3.375
323.15 K, x1 = 0.9	988.38	2.765
323.15 K, x1 = 1	985.962	2.195
